From US9932314B2, “Pyrazole compounds and their use as T-type calcium channel blockers” (IDORSIA PHARMACEUTICALS LTD, priority 2015, dated 2018)

Molecular target: T1, voltage-dependent T-type calcium channel subunit alpha-1G (Cav3.2) (Homo sapiens, UniProt O95180)
T1 construct: expressed in transfected cells; host or cells: HEK293
Experiment: FLIPR calcium flux assay, HEK293 cells recombinantly expressing Cav3.2
Format: cell-based
Conditions: Cav3.2-channel, Fluo-4-AM, 3 min incubation, stimulation with 10 mM CaCl2
How it was run: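 Calcium influx was triggered by adding CaCl2 to 10 mM final, 3 min after compounds in tetraethylammonium-based buffer, pH 7.2, reached Fluo-4-AM-loaded recombinant HEK293 cells. The integrated kinetic fluorescence signal per concentration gave concentration-response curves by non-linear sigmoidal regression.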

T1 sequence (O95180 whole entry): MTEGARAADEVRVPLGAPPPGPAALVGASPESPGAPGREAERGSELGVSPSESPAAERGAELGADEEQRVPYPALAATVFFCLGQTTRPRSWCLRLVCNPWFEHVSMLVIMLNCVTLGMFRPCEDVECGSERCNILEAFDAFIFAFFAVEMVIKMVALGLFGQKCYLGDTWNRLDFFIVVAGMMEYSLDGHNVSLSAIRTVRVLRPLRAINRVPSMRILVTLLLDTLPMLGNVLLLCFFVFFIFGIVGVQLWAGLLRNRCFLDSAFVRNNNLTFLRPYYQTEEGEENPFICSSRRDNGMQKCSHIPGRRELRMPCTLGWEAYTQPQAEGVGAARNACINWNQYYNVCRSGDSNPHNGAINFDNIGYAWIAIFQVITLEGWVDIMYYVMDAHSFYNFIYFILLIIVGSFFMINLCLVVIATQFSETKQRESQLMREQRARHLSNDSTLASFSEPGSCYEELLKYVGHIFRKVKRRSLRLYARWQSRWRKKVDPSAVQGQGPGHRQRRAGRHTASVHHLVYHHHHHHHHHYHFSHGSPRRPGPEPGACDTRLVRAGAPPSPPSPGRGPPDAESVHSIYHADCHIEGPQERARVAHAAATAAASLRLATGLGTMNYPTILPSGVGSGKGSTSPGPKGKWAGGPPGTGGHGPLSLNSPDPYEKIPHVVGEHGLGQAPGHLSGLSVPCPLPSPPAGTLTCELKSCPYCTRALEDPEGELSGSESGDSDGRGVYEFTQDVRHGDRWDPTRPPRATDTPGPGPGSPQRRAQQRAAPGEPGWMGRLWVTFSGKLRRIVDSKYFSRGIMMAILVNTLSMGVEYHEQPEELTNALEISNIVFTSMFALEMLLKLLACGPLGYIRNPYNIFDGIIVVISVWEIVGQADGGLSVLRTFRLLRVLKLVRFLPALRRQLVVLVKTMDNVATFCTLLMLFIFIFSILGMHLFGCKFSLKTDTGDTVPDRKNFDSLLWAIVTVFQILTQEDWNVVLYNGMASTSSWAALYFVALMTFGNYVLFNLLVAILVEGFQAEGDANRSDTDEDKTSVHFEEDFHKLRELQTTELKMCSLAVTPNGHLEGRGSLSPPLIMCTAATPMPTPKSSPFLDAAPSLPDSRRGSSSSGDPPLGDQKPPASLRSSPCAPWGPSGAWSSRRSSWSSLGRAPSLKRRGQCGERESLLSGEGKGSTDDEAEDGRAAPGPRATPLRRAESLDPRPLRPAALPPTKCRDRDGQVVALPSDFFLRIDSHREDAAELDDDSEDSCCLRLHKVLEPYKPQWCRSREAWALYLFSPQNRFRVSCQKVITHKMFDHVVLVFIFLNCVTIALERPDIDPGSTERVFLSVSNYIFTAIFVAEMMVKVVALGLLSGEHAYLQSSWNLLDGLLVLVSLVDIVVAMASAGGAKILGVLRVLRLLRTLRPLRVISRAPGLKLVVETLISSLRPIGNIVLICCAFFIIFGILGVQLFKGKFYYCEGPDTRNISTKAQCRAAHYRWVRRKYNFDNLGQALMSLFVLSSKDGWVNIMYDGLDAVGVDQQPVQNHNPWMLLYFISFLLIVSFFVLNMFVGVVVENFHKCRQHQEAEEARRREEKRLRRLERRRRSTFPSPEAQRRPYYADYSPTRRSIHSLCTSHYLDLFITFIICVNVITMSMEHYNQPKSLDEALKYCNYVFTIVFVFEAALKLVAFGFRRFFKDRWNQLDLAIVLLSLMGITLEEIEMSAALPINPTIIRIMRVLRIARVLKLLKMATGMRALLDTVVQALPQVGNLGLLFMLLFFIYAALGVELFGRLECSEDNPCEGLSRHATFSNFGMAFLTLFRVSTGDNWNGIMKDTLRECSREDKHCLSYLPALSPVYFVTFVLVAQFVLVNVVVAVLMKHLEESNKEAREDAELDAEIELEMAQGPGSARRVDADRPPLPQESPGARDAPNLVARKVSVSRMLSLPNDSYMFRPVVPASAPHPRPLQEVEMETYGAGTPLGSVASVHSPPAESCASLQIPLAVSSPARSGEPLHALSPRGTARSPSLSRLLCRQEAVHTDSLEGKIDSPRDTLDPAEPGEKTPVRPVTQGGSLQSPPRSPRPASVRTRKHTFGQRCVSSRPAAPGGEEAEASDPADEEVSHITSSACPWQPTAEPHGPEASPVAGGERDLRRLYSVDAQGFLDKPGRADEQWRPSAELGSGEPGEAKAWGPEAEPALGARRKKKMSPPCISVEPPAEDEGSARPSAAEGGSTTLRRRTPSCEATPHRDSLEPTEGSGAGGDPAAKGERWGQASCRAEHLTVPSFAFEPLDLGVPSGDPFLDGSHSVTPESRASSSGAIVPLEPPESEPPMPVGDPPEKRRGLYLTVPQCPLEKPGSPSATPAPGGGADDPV

| Structure (SMILES) | IC50 |
| --- | --- |
| CC1(COc2ccc(CC(=O)Nc3ccn(Cc4cc(F)c(C#N)c(F)c4)n3)cc2)COC1 [Example 362, N-[1-(4-Cyano-3,5-difluoro-benzyl)-1H-pyrazol-3-yl]-2-[4-(3-methyl-oxetan-3-ylmethoxy)-phenyl]-acetamide] | 117 nM |
| N#Cc1ccc(Cn2ccc(NC(=O)Cc3ccc(C4(F)COC4)cc3)n2)nc1 [Example 246, N-[1-(5-Cyano-pyridin-2-ylmethyl)-1H-pyrazol-3-yl]-2-[4-(3-fluoro-oxetan-3-yl)-phenyl]-acetamide] | 705 nM |
| N#Cc1cc(Cn2ccc(NC(=O)Cc3ccc(OC4CC(F)(F)C4)cc3)n2)ccc1F [Example 281, N-[1-(3-Cyano-4-fluoro-benzyl)-1H-pyrazol-3-yl]-2-[4-(3,3-difluoro-cyclobutoxy)-phenyl]-acetamide] | 21 nM |
| CCc1cc(CC(=O)Nc2ccn(Cc3cc(C#N)c(F)cn3)n2)ccc1OCC(F)(F)F [Example 413, N-[1-(4-Cyano-5-fluoro-pyridin-2-ylmethyl)-1H-pyrazol-3-yl]-2-[3-ethyl-4-(2,2,2-trifluoro-ethoxy)-phenyl]-acetamide] | 30 nM |
| Cc1nc2ccc(CC(=O)Nc3ccn(Cc4ccc(C#N)cc4)n3)cc2[nH]1 [Example 136, N-[1-(4-Cyano-benzyl)-1H-pyrazol-3-yl]-2-(2-methyl-3H-benzoimidazol-5-yl)-acetamide] | 1570 nM |
| O=C(Cc1ccc(OCC2CC(F)(F)C2)cc1)Nc1ccn(Cc2ccc(F)c(F)c2)n1 [Example 244, N-[1-(3,4-Difluoro-benzyl)-1H-pyrazol-3-yl]-2-[4-(3,3-difluoro-cyclobutylmethoxy)-phenyl]-acetamide] | 33 nM |
| COCCN(C)c1ccc(CC(=O)Nc2ccn(Cc3ccc(F)cc3)n2)cc1 [Example 128, N-[1-(4-Fluoro-benzyl)-1H-pyrazol-3-yl]-2-{4-[(2-methoxy-ethyl)-methyl-amino]-phenyl}-acetamide] | 9.7 nM |
| CC1(COc2ccc(CC(=O)Nc3ccn(Cc4ccc(C#N)c(F)c4)n3)cc2)CC(F)(F)C1 [Example 290, N-[1-(4-Cyano-3-fluoro-benzyl)-1H-pyrazol-3-yl]-2-[4-(3,3-difluoro-1-methyl-cyclobutylmethoxy)-phenyl]-acetamide] | 39 nM |
| O=C(Cc1ccc(N2CCC(F)(F)C2)cc1)Nc1ccn(Cc2ccc(F)c(F)c2)n1 [Example 67, N-[1-(3,4-Difluoro-benzyl)-1H-pyrazol-3-yl]-2-[4-(3,3-difluoro-pyrrolidin-1-yl)-phenyl]-acetamide] | 3.4 nM |
| CCN(C)c1ccc(CC(=O)Nc2ccn(Cc3ccc(F)c(F)c3)n2)cc1 [Example 130, N-[1-(3,4-Difluoro-benzyl)-1H-pyrazol-3-yl]-2-[4-(ethyl-methyl-amino)-phenyl]-acetamide] | 293 nM |
| COc1ccc(Cn2ccc(NC(=O)Cc3ccc(N4CCC4)cc3)n2)cc1 [Example 55, 2-(4-Azetidin-1-yl-phenyl)-N-[1-(4-methoxy-benzyl)-1H-pyrazol-3-yl]-acetamide] | 33 nM |
| Cn1ncc2cc(CC(=O)Nc3ccn(Cc4ccc(F)c(C#N)c4)n3)ccc21 [Example 268, N-[1-(3-Cyano-4-fluoro-benzyl)-1H-pyrazol-3-yl]-2-(1-methyl-1H-indazol-5-yl)-acetamide] | 35 nM |
| N#Cc1ccc(Cn2ccc(NC(=O)Cc3ccc(C4(C(F)(F)F)CC4)cc3)n2)cc1F [Example 265, N-[1-(4-Cyano-3-fluoro-benzyl)-1H-pyrazol-3-yl]-2-[4-(1-trifluoromethyl-cyclopropyl)-phenyl]-acetamide] | 15 nM |
| N#Cc1ccc(Cn2ccc(NC(=O)Cc3ccc(OCC4COC4)cc3)n2)cc1 [Example 286, N-[1-(4-Cyano-benzyl)-1H-pyrazol-3-yl]-2-[4-(oxetan-3-ylmethoxy)-phenyl]-acetamide] | 393 nM |
| CN(C)c1ccc(CC(=O)Nc2ccn(Cc3ccc(F)c(Cl)c3)n2)cc1 [Example 31, N-[1-(3-Chloro-4-fluoro-benzyl)-1H-pyrazol-3-yl]-2-(4-dimethylamino-phenyl)-acetamide] | 4 nM |
| COc1ccc(Cn2ccc(NC(=O)Cc3ccc(N4CC[C@H](F)C4)nc3)n2)cc1 [Example 156, 2-[6-((S)-3-Fluoro-pyrrolidin-1-yl)-pyridin-3-yl]-N-[1-(4-methoxy-benzyl)-1H-pyrazol-3-yl]-acetamide] | 179 nM |
| N#Cc1ccc(Cn2ccc(NC(=O)Cc3ccc([C@@H]4C[C@H]4C(F)(F)F)cc3)n2)nc1 (racemic) [Example 383, rac-N-[1-(5-Cyano-pyridin-2-ylmethyl)-1H-pyrazol-3-yl]-2-[4-((1R*,2R*)-2-trifluoromethyl-cyclopropyl)-phenyl]-acetamide] | 36 nM |
| Cc1cc(CC(=O)Nc2ccn(Cc3cc(C#N)c(F)cn3)n2)cnc1OCC(F)(F)F [Example 419, N-[1-(4-Cyano-5-fluoro-pyridin-2-ylmethyl)-1H-pyrazol-3-yl]-2-[5-methyl-6-(2,2,2-trifluoro-ethoxy)-pyridin-3-yl]-acetamide] | 9430 nM |
| COc1ccc(Cn2ccc(NC(=O)Cc3ccc(N(C)C4CC4)nc3)n2)cc1 [Example 168, 2-[6-(Cyclopropyl(methyl)amino)-pyridin-3-yl]-N-[1-(4-methoxy-benzyl)-1H-pyrazol-3-yl]-acetamide] | 113 nM |
| N#Cc1ccc(Cn2ccc(NC(=O)Cc3ccc(C4(C(F)(F)F)CC4)cc3)n2)cc1 [Example 277, N-[1-(4-Cyano-benzyl)-1H-pyrazol-3-yl]-2-[4-(1-trifluoromethyl-cyclopropyl)-phenyl]-acetamide] | 15 nM |
| CC(C)c1ccc(CC(=O)Nc2ccn(Cc3ccc(F)c(Cl)n3)n2)cc1 [Example 211, N-[1-(6-Chloro-5-fluoro-pyridin-2-ylmethyl)-1H-pyrazol-3-yl]-2-(4-isopropyl-phenyl)-acetamide] | 3.1 nM |
| CC1(C)Cc2cc(CC(=O)Nc3ccn(Cc4ccc(C#N)cn4)n3)ccc2O1 [Example 378, N-[1-(5-Cyano-pyridin-2-ylmethyl)-1H-pyrazol-3-yl]-2-(2,2-dimethyl-2,3-dihydro-benzofuran-5-yl)-acetamide] | 249 nM |
| CN(C)c1ccc(CC(=O)Nc2ccn(Cc3ccc(F)cn3)n2)cn1 [Example 150, 2-(6-Dimethylamino-pyridin-3-yl)-N-[1-(5-fluoro-pyridin-2-ylmethyl)-1H-pyrazol-3-yl]-acetamide] | 682 nM |
| CCN(C)c1ccc(CC(=O)Nc2ccn(Cc3ccc(F)cc3)n2)cn1 [Example 48, 2-[6-(Ethyl-methyl-amino)-pyridin-3-yl]-N-[1-(4-fluoro-benzyl)-1H-pyrazol-3-yl]-acetamide] | 138 nM |
| CC(C)Oc1nc(Cn2ccc(NC(=O)Cc3ccc(C(C)C)cc3)n2)ccc1C#N [Example 118, N-[1-(5-Cyano-6-isopropoxy-pyridin-2-ylmethyl)-1H-pyrazol-3-yl]-2-(4-isopropyl-phenyl)-acetamide] | 97 nM |
| COc1ccc(Cn2ccc(NC(=O)Cc3cnc4c(ccn4C)c3)n2)cc1 [Example 215, N-[1-(4-Methoxy-benzyl)-1H-pyrazol-3-yl]-2-(1-methyl-1H-pyrrolo[2,3-b]pyridin-5-yl)-acetamide] | 599 nM |
| N#Cc1cc(Cn2ccc(NC(=O)Cc3ccc(F)cc3OCC(F)(F)F)n2)ccc1F [Example 332, N-[1-(3-Cyano-4-fluoro-benzyl)-1H-pyrazol-3-yl]-2-[4-fluoro-2-(2,2,2-trifluoro-ethoxy)-phenyl]-acetamide] | 600 nM |
